Data as given in US7432375B2, “JNK inhibitors” (Eisai R & D Management Co., Ltd., priority 2003, dated 2008).

Tests used:
Format in all cases: biochemical
[1] = molecular target: JNK2 (Homo sapiens, UniProt P45984); assay: JNK2 SPA assay; settings: phosphorylation of GST-c-Jun, 3.33 μM ATP
Protocol: (§1) JNK1, JNK2, JNK3—SPA Assay
(§2) • 1. Compound is dissolved in DMSO to a convenient concentration and this is diluted in 10% DMSO to a five times concentrate of the desired starting concentration (frequently 1:100). • 2. 10 μl of 500 mM EDTA is added to alternative wells of the Opti-plate row, which will receive kinase reaction plus DMSO. This creates the negative control. • 3. For the JNK2 and JNK3 assay, compounds are prepared in six 2-fold dilutions with water and each concentration is tested in duplicate. For the JNK1 assay compounds are prepared in four 5-fold dilutions with water which are tested in triplicate. Controls are treated identically. • 4. 20 μl per well of each compound concentration is transferred to an Opti-plate, in duplicate. • 5. 30 μl (JNK2/3 SPA) or 50 μl (JNK1 SPA) of substrate solution (25 mM HEPES pH 7.5, 10 mM magnesium acetate with 3.33 μM ATP (JNK2/3) or 2 μM ATP (JNK1), approximately 7.5 kBq [γ-^33P] ATp, GST-c-Jun, in water) is added to each well. • 6. 50 μl (JNK2/3 SPA) or 30 μl (JNK1 SPA) of kinase solution (JNK in 25 mM HEPES pH 7.5, 10 mM Mg Acetate) is added to each well.
(§3) • 7. The plate is incubated for 30 minutes at room temperature. • 8. 100 μl of bead/stop solution is added to each well (5 mg/ml glutathione-PVT-SPA beads, 40 mM ATP in PBS). • 9. Plates are sealed and incubated for 30 minutes at room temperature, centrifuged for 10 minutes at 2500 g and counted. • 10. The IC50 values are calculated as the concentration of the compound being tested at which the phosphorylation of c-Jun is decreased to 50% of the control value.

[2] = molecular target: JNK1 (Homo sapiens, UniProt P45983); assay: JNK1 SPA assay; settings: phosphorylation of GST-c-Jun, 2 μM ATP
Sequence of JNK1 (P45983 whole entry): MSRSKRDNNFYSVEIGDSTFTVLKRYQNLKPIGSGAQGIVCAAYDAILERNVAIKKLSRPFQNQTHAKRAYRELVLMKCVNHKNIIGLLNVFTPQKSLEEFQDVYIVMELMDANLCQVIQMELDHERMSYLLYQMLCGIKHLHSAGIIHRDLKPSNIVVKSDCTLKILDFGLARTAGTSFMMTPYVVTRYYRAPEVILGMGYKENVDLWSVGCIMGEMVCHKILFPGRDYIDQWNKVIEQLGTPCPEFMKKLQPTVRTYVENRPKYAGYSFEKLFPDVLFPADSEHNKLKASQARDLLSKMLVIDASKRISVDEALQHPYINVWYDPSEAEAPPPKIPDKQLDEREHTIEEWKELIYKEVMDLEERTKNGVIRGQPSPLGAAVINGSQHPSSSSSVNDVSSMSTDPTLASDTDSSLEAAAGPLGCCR
Protocol: as §1, §2, §3

[3] = molecular target: JNK3 (Homo sapiens, UniProt P53779); assay: JNK3 SPA assay; settings: phosphorylation of GST-c-Jun, 3.33 μM ATP
Sequence of JNK3 (P53779 whole entry): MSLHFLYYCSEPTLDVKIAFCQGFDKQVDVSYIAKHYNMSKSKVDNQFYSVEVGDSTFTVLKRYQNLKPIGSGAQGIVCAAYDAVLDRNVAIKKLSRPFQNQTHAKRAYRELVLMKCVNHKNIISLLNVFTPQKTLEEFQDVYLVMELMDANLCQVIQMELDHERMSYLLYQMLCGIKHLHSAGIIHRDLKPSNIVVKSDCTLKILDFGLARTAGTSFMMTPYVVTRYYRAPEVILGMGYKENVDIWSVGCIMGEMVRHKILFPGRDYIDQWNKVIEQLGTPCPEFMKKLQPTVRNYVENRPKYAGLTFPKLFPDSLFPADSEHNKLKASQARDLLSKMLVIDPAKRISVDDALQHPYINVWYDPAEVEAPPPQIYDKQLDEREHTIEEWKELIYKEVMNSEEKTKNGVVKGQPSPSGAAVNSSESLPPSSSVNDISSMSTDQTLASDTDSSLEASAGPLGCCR
Protocol: as §1, §2, §3

[4] = molecular target: T1, p38 MAP kinase (Homo sapiens, UniProt Q16539); assay: p38 ELISA; settings: phosphorylation of GST-ATF2, 50 μM ATP
T1 construct: purchased Upstate
T1 sequence (Q16539 whole entry): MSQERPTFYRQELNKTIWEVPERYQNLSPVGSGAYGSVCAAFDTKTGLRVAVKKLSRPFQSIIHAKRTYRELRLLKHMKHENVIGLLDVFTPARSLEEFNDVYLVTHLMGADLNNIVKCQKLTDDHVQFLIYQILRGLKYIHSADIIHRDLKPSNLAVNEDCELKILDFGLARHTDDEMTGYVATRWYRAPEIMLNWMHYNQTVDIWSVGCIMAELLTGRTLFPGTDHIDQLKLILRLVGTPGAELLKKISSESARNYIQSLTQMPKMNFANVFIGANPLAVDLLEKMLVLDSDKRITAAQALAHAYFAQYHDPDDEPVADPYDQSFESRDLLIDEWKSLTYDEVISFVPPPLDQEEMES
Protocol: Active p38 kinase (100 ng; Upstate) was added to 2 μg GST-ATF2 substrate (NEB) in 250 mM Hepes pH 7.5/100 mM MgAc/50 μM ATP (final) in the presence or absence of compounds in 50 μl. The mixture was incubated at 30° C. for 1 hour, and then diluted with 200 μl PBS-Tween (0.05%). From this, duplicate volumes of 100 μl were added to a Reacti-Bind glutathione coated plate (Pierce) and incubated for 1 hour. After washing 3 times with PBS-Tween (0.05%), rabbit anti-phospho-ATF2 (Thr71) antibody (NEB) was added at 1:500, and incubated for another hour at room temperature. After 3 additional washes with PBS-Tween (0.05%), […] anti-rabbit IgG alkaline phosphatase-conjugated secondary antibody (Sigma) was added at 1:1000, the reaction was incubated for a further hour, washed 3 times, and then phosphatase substrate (Sigma) was added (100 μl per well; 3 tablets in 5 ml water). After incubation in the dark at 37° C. for 1 hour, the reaction mixture was transferred to a clear 96 well plate, and the absorbance at 405 nm was read.
The IC50 values are calculated as the concentration of the compound being tested at which the phosphorylation of ATF2 is decreased to 50% of the control value.

Sequence of JNK2 (P45984 whole entry): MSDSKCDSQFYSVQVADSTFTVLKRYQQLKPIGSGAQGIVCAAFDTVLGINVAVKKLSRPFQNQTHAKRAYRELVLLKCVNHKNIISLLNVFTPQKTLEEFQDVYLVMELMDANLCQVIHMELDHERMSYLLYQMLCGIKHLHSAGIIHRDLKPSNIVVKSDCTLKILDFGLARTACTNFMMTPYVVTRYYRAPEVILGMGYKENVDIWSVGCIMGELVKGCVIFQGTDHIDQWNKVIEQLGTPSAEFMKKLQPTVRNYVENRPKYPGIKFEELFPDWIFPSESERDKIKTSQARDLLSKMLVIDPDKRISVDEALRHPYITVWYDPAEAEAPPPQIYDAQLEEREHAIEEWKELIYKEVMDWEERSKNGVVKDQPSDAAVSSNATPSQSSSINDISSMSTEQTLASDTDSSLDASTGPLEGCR

Row | IC50 [1] [nM] | IC50 [2] [nM] | IC50 [3] [nM] | IC50 [4] [µM] | Compound
1 | < 500 | < 500 | < 500 | > 10 | CN(C)c1ccc(-c2cnc3[nH]cc(-c4ccoc4)c3c2)cc1
2 | < 500 | < 500 | < 500 | > 10 | c1csc(-c2cnc3[nH]cc(-c4ccoc4)c3c2)c1
3 |  |  | < 500 |  | CN(C)c1ccc(-c2cnc3[nH]cc(-c4cc[nH]c4)c3c2)cc1
4 | < 500 | < 500 | < 500 | > 10 | c1csc(-c2cnc3[nH]cc(-c4cncs4)c3c2)c1
5 |  |  | < 500 |  | Fc1cccc(-c2c[nH]c3ncc(-c4ccccc4Oc4ccccc4)cc23)c1
6 |  |  | < 500 |  | c1ccc(Oc2ccccc2-c2cnc3[nH]cc(-c4ccccc4)c3c2)cc1
